# Source: US10485235B2, “Aryloxypyrimidinyl ethers as herbicides” (FMC Corporation, priority 2015, dated 2019)
# Tested on: pigweed (Amaranthus retroflexus)
# Assay: Test A postemergence, pigweed
# Type: in vivo
# Conditions: 31 g ai/ha, postemergence; 0 to 100 scale, 0 is no effect, 100 is complete control; approximately 10 days
# Description: (§1) Seeds of plant species selected from barnyardgrass (Echinochloa crus-galli), kochia (Kochia scoparia), ragweed (common ragweed, Ambrosia elatior), ryegrass, Italian (Italian ryegrass, Lolium multiflorum), foxtail, giant (giant foxtail, Setaria faberii), and pigweed (Amaranthus retroflexus), were planted into a blend of loam soil and sand and treated preemergence with a directed soil spray using test chemicals formulated in a non-phytotoxic solvent mixture which included a surfactant.
# (§2) At the same time, plants selected from these weed species and also wheat (Triticum aestivum), corn (Zea mays), blackgrass (Alopecurus myosuroides), and galium (catchweed bedstraw, Galium aparine), were planted in pots containing the same blend of loam soil and sand and treated with postemergence applications of test chemicals formulated in the same manner. Plants ranged in height from 2 to 10 cm and were in the one- to two-leaf stage for the postemergence treatment. Treated plants and untreated controls were maintained in a greenhouse for approximately 10 days, after which time all treated plants were compared to untreated controls and visually evaluated for injury. Plant response ratings, summarized in Table A, are based on a 0 to 100 scale where 0 is no effect and 100 is complete control. A dash (—) response means no test result.
row,SMILES,"Plant response rating, Pigweed"
1,N#Cc1cccc(Oc2ncc(Cl)cn2)c1OCc1ccc(Cl)cn1 [Compound 6],20

# Same assay, conditions: 125 g ai/ha, postemergence; 0 to 100 scale, 0 is no effect, 100 is complete control; approximately 10 days
row,SMILES,"Plant response rating, Pigweed"
1,N#Cc1cccc(Oc2ncc(Cl)cn2)c1OCc1ccc(Cl)cn1 [Compound 6],80

# Tested on: blackgrass (Alopecurus myosuroides)
# Assay: Test A postemergence, blackgrass
# Type: in vivo
# Conditions: 31 g ai/ha, postemergence; 0 to 100 scale, 0 is no effect, 100 is complete control; approximately 10 days
# Description: as §1, §2
row,SMILES,"Plant response rating, Blackgrass"
1,N#Cc1cccc(Oc2ncc(Cl)cn2)c1OCc1ccc(Cl)cn1 [Compound 6],0

# Same assay, conditions: 125 g ai/ha, postemergence; 0 to 100 scale, 0 is no effect, 100 is complete control; approximately 10 days
row,SMILES,"Plant response rating, Blackgrass"
1,N#Cc1cccc(Oc2ncc(Cl)cn2)c1OCc1ccc(Cl)cn1 [Compound 6],10

# Tested on: barnyardgrass (Echinochloa crus-galli)
# Assay: Test A postemergence, barnyardgrass
# Type: in vivo
# Conditions: 31 g ai/ha, postemergence; 0 to 100 scale, 0 is no effect, 100 is complete control; approximately 10 days
# Description: as §1, §2
row,SMILES,"Plant response rating, Barnyardgrass"
1,N#Cc1cccc(Oc2ncc(Cl)cn2)c1OCc1ccc(Cl)cn1 [Compound 6],0

# Same assay, conditions: 125 g ai/ha, postemergence; 0 to 100 scale, 0 is no effect, 100 is complete control; approximately 10 days
row,SMILES,"Plant response rating, Barnyardgrass"
1,N#Cc1cccc(Oc2ncc(Cl)cn2)c1OCc1ccc(Cl)cn1 [Compound 6],10

# Tested on: rice (Oryza sativa)
# Assay: Test B flooded paddy test, rice
# Type: in vivo
# Conditions: 250 g ai/ha, Flood; visual rating after 13 to 15 days; scale 0 to 100, 0 is no effect, 100 is complete control
# Experimental: (§3) Plant species in the flooded paddy test selected from rice (Oryza sativa), sedge, umbrella (small-flower umbrella sedge, Cyperus difformis), ducksalad (Heteranthera limosa), and barnyardgrass (Echinochloa crus-galli) were grown to the 2-leaf stage for testing. At time of treatment, test pots were flooded to 3 cm above the soil surface, treated by application of test compounds directly to the paddy water, and then maintained at that water depth for the duration of the test. Treated plants and controls were maintained in a greenhouse for 13 to 15 days, after which time all species were compared to controls and visually evaluated. Plant response ratings, summarized in Table B, are based on a scale of 0 to 100 where 0 is no effect and 100 is complete control. A dash (—) response means no test result.
row,SMILES,"Plant response rating, Rice"
1,N#Cc1cccc(Oc2ncc(Cl)cn2)c1OCc1ccc(Cl)cn1 [Compound 6],0

# Tested on: foxtail, giant (giant foxtail, Setaria faberii)
# Assay: Test A preemergence, giant foxtail
# Type: in vivo
# Conditions: Preemergence, 31 g ai/ha; 0 to 100 scale (0 no effect, 100 complete control)
# Description: as §1, §2
row,SMILES,"Plant response rating, Foxtail, Giant"
1,N#Cc1cccc(Oc2ncc(Cl)cn2)c1OCc1ccc(Cl)cn1 [Compound 6],0

# Same assay, conditions: Preemergence, 125 g ai/ha; 0 to 100 scale (0 no effect, 100 complete control)
row,SMILES,"Plant response rating, Foxtail, Giant"
1,N#Cc1cccc(Oc2ncc(Cl)cn2)c1OCc1ccc(Cl)cn1 [Compound 6],20

# Tested on: galium (catchweed bedstraw, Galium aparine)
# Assay: Test A postemergence, galium
# Type: in vivo
# Conditions: 31 g ai/ha, postemergence; 0 to 100 scale, 0 is no effect, 100 is complete control; approximately 10 days
# Description: as §1, §2
row,SMILES,"Plant response rating, Galium"
1,N#Cc1cccc(Oc2ncc(Cl)cn2)c1OCc1ccc(Cl)cn1 [Compound 6],30

# Same assay, conditions: 125 g ai/ha, postemergence; 0 to 100 scale, 0 is no effect, 100 is complete control; approximately 10 days
row,SMILES,"Plant response rating, Galium"
1,N#Cc1cccc(Oc2ncc(Cl)cn2)c1OCc1ccc(Cl)cn1 [Compound 6],40

# Tested on: foxtail, giant (giant foxtail, Setaria faberii)
# Assay: Test A postemergence, giant foxtail
# Type: in vivo
# Conditions: 31 g ai/ha, postemergence; 0 to 100 scale, 0 is no effect, 100 is complete control; approximately 10 days
# Description: as §1, §2
row,SMILES,"Plant response rating, Foxtail, Giant"
1,N#Cc1cccc(Oc2ncc(Cl)cn2)c1OCc1ccc(Cl)cn1 [Compound 6],0

# Same assay, conditions: 125 g ai/ha, postemergence; 0 to 100 scale, 0 is no effect, 100 is complete control; approximately 10 days
row,SMILES,"Plant response rating, Foxtail, Giant"
1,N#Cc1cccc(Oc2ncc(Cl)cn2)c1OCc1ccc(Cl)cn1 [Compound 6],10

# Tested on: ragweed (common ragweed, Ambrosia elatior)
# Assay: Test A postemergence, ragweed
# Type: in vivo
# Conditions: 31 g ai/ha, postemergence; 0 to 100 scale, 0 is no effect, 100 is complete control; approximately 10 days
# Description: as §1, §2
row,SMILES,"Plant response rating, Ragweed"
1,N#Cc1cccc(Oc2ncc(Cl)cn2)c1OCc1ccc(Cl)cn1 [Compound 6],0

# Same assay, conditions: 125 g ai/ha, postemergence; 0 to 100 scale, 0 is no effect, 100 is complete control; approximately 10 days
row,SMILES,"Plant response rating, Ragweed"
1,N#Cc1cccc(Oc2ncc(Cl)cn2)c1OCc1ccc(Cl)cn1 [Compound 6],0

# Tested on: pigweed (Amaranthus retroflexus)
# Assay: Test A preemergence, pigweed
# Type: in vivo
# Conditions: Preemergence, 31 g ai/ha; 0 to 100 scale (0 no effect, 100 complete control)
# Description: as §1, §2
row,SMILES,"Plant response rating, Pigweed"
1,N#Cc1cccc(Oc2ncc(Cl)cn2)c1OCc1ccc(Cl)cn1 [Compound 6],10

# Same assay, conditions: Preemergence, 125 g ai/ha; 0 to 100 scale (0 no effect, 100 complete control)
row,SMILES,"Plant response rating, Pigweed"
1,N#Cc1cccc(Oc2ncc(Cl)cn2)c1OCc1ccc(Cl)cn1 [Compound 6],90

# Tested on: kochia (Kochia scoparia)
# Assay: Test A preemergence, kochia
# Type: in vivo
# Conditions: Preemergence, 31 g ai/ha; 0 to 100 scale (0 no effect, 100 complete control)
# Description: as §1, §2
row,SMILES,"Plant response rating, Kochia"
1,N#Cc1cccc(Oc2ncc(Cl)cn2)c1OCc1ccc(Cl)cn1 [Compound 6],0

# Same assay, conditions: Preemergence, 125 g ai/ha; 0 to 100 scale (0 no effect, 100 complete control)
row,SMILES,"Plant response rating, Kochia"
1,N#Cc1cccc(Oc2ncc(Cl)cn2)c1OCc1ccc(Cl)cn1 [Compound 6],0

# Tested on: ryegrass, Italian (Italian ryegrass, Lolium multiflorum)
# Assay: Test A preemergence, Italian ryegrass
# Type: in vivo
# Conditions: Preemergence, 31 g ai/ha; 0 to 100 scale (0 no effect, 100 complete control)
# Description: as §1, §2
row,SMILES,"Plant response rating, Ryegrass, Italian"
1,N#Cc1cccc(Oc2ncc(Cl)cn2)c1OCc1ccc(Cl)cn1 [Compound 6],0

# Same assay, conditions: Preemergence, 125 g ai/ha; 0 to 100 scale (0 no effect, 100 complete control)
row,SMILES,"Plant response rating, Ryegrass, Italian"
1,N#Cc1cccc(Oc2ncc(Cl)cn2)c1OCc1ccc(Cl)cn1 [Compound 6],0

# Tested on: wheat (Triticum aestivum)
# Assay: Test A postemergence, wheat
# Type: in vivo
# Conditions: 31 g ai/ha, postemergence; 0 to 100 scale, 0 is no effect, 100 is complete control; approximately 10 days
# Description: as §1, §2
row,SMILES,"Plant response rating, Wheat"
1,N#Cc1cccc(Oc2ncc(Cl)cn2)c1OCc1ccc(Cl)cn1 [Compound 6],0

# Same assay, conditions: 125 g ai/ha, postemergence; 0 to 100 scale, 0 is no effect, 100 is complete control; approximately 10 days
row,SMILES,"Plant response rating, Wheat"
1,N#Cc1cccc(Oc2ncc(Cl)cn2)c1OCc1ccc(Cl)cn1 [Compound 6],0

# Tested on: barnyardgrass (Echinochloa crus-galli)
# Assay: Test B flooded paddy test, barnyardgrass
# Type: in vivo
# Conditions: 250 g ai/ha, Flood; visual rating after 13 to 15 days; scale 0 to 100, 0 is no effect, 100 is complete control
# Experimental: as §3
row,SMILES,"Plant response rating, Barnyardgrass"
1,N#Cc1cccc(Oc2ncc(Cl)cn2)c1OCc1ccc(Cl)cn1 [Compound 6],0

# Tested on: sedge, umbrella (small-flower umbrella sedge, Cyperus difformis)
# Assay: Test B flooded paddy test, umbrella sedge
# Type: in vivo
# Conditions: 250 g ai/ha, Flood; visual rating after 13 to 15 days; scale 0 to 100, 0 is no effect, 100 is complete control
# Experimental: as §3
row,SMILES,"Plant response rating, Sedge, Umbrella"
1,N#Cc1cccc(Oc2ncc(Cl)cn2)c1OCc1ccc(Cl)cn1 [Compound 6],0

# Tested on: ragweed (common ragweed, Ambrosia elatior)
# Assay: Test A preemergence, ragweed
# Type: in vivo
# Conditions: Preemergence, 31 g ai/ha; 0 to 100 scale (0 no effect, 100 complete control)
# Description: as §1, §2
row,SMILES,"Plant response rating, Ragweed"
1,N#Cc1cccc(Oc2ncc(Cl)cn2)c1OCc1ccc(Cl)cn1 [Compound 6],0

# Same assay, conditions: Preemergence, 125 g ai/ha; 0 to 100 scale (0 no effect, 100 complete control)
row,SMILES,"Plant response rating, Ragweed"
1,N#Cc1cccc(Oc2ncc(Cl)cn2)c1OCc1ccc(Cl)cn1 [Compound 6],0

# Tested on: barnyardgrass (Echinochloa crus-galli)
# Assay: Test A preemergence, barnyardgrass
# Type: in vivo
# Conditions: Preemergence, 31 g ai/ha; 0 to 100 scale (0 no effect, 100 complete control)
# Description: as §1, §2
row,SMILES,"Plant response rating, Barnyardgrass"
1,N#Cc1cccc(Oc2ncc(Cl)cn2)c1OCc1ccc(Cl)cn1 [Compound 6],0

# Same assay, conditions: Preemergence, 125 g ai/ha; 0 to 100 scale (0 no effect, 100 complete control)
row,SMILES,"Plant response rating, Barnyardgrass"
1,N#Cc1cccc(Oc2ncc(Cl)cn2)c1OCc1ccc(Cl)cn1 [Compound 6],0

# Tested on: ducksalad (Heteranthera limosa)
# Assay: Test B flooded paddy test, ducksalad
# Type: in vivo
# Conditions: 250 g ai/ha, Flood; visual rating after 13 to 15 days; scale 0 to 100, 0 is no effect, 100 is complete control
# Experimental: as §3
row,SMILES,"Plant response rating, Ducksalad"
1,N#Cc1cccc(Oc2ncc(Cl)cn2)c1OCc1ccc(Cl)cn1 [Compound 6],0

# Tested on: corn (Zea mays)
# Assay: Test A postemergence, corn
# Type: in vivo
# Conditions: 31 g ai/ha, postemergence; 0 to 100 scale, 0 is no effect, 100 is complete control; approximately 10 days
# Description: as §1, §2
row,SMILES,"Plant response rating, Corn"
1,N#Cc1cccc(Oc2ncc(Cl)cn2)c1OCc1ccc(Cl)cn1 [Compound 6],10

# Same assay, conditions: 125 g ai/ha, postemergence; 0 to 100 scale, 0 is no effect, 100 is complete control; approximately 10 days
row,SMILES,"Plant response rating, Corn"
1,N#Cc1cccc(Oc2ncc(Cl)cn2)c1OCc1ccc(Cl)cn1 [Compound 6],20

# Tested on: kochia (Kochia scoparia)
# Assay: Test A postemergence, kochia
# Type: in vivo
# Conditions: 31 g ai/ha, postemergence; 0 to 100 scale, 0 is no effect, 100 is complete control; approximately 10 days
# Description: as §1, §2
row,SMILES,"Plant response rating, Kochia"
1,N#Cc1cccc(Oc2ncc(Cl)cn2)c1OCc1ccc(Cl)cn1 [Compound 6],10

# Same assay, conditions: 125 g ai/ha, postemergence; 0 to 100 scale, 0 is no effect, 100 is complete control; approximately 10 days
row,SMILES,"Plant response rating, Kochia"
1,N#Cc1cccc(Oc2ncc(Cl)cn2)c1OCc1ccc(Cl)cn1 [Compound 6],60

# Tested on: ryegrass, Italian (Italian ryegrass, Lolium multiflorum)
# Assay: Test A postemergence, Italian ryegrass
# Type: in vivo
# Conditions: 31 g ai/ha, postemergence; 0 to 100 scale, 0 is no effect, 100 is complete control; approximately 10 days
# Description: as §1, §2
row,SMILES,"Plant response rating, Ryegrass, Italian"
1,N#Cc1cccc(Oc2ncc(Cl)cn2)c1OCc1ccc(Cl)cn1 [Compound 6],0

# Same assay, conditions: 125 g ai/ha, postemergence; 0 to 100 scale, 0 is no effect, 100 is complete control; approximately 10 days
row,SMILES,"Plant response rating, Ryegrass, Italian"
1,N#Cc1cccc(Oc2ncc(Cl)cn2)c1OCc1ccc(Cl)cn1 [Compound 6],0
